Where two headings read alike, the source gives them in different places.
Key:
[1] = Urinary excretion and renal clearance of Compound A in the pharmacokinetic study; assay type: in vivo, human; details: for mean amount excreted unchanged in urine / mean percentage of dose excreted unchanged in urine: over 48 hours following dosing
Method: (§1) In this open-label, randomized study, subjects received the following treatments: • Two single oral doses of 100 mg (2×50 mg) Compound A adult immediate release tablet formulation, fasted state, administered on Day 1 and Day 12. • Repeat doses of phenytoin 100 mg TID for 10 days (from Day 3 until the morning of Day 12).
(§2) Subjects fasted overnight for a minimum of 10 hours prior to dosing on Day 1 and Day 12. An oral dose of the Compound A IR tablet treatment was administered in the morning with approximately 240 mL of water at ambient temperature, to 1 subject per 2 minute intervals. Fasting continued for at least 4 hours following administration. Water was provided as needed until 1 hour pre-dose. Water was allowed beginning 1 hour after the administration of the drug.
(§3) On Day 3 to Day 11, an oral dose of phenytoin was administered TID with approximately 240 mL of water at ambient temperature, starting at 07:30, 15:30, and 23:30 to 1 subject per 2 minute intervals. On Day 12, an oral dose of phenytoin was administered in the morning with approximately 240 mL of water at ambient temperature, starting at 07:30 (1 hour prior to Compound A dosing) to 1 subject per 2 minute intervals.
(§4) The direct measurements of this study were the plasma, whole blood, urine, and saliva concentrations of Compound A and plasma concentrations for phenytoin.

[2] = Open-label randomized pharmacokinetic drug-drug interaction study: plasma PK of Compound A alone or with phenytoin; assay type: in vivo, human; details: for Cmax / AUC / Tmax / AUC(0-t) / AUC(0-inf) / half-life: human, plasma; for Cmax / AUC / Tmax / half-life: 100 mg; for AUC(0-t): read-out: mean AUC0-t; for AUC(0-inf): read-out: mean AUC0-inf; for half-life: read-out: elimination half-life (converted)
Method: as §1, §2, §3, §4
The magnitude of DDI was described using GMR (with/without phenytoin) and associated 90% CI of the Cmax, AUC0-t, and AUC0-inf for Compound A.

[3] = Safety: treatment-emergent adverse events (TEAEs) in the pharmacokinetic study; assay type: in vivo, human
Method: as §1
A total of 15 subjects (83%) reported 101 TEAEs over the course of the study. Three treatment periods were defined: Day 1 to Day 3 (following Compound A dosing on Day 1 and prior to start of phenytoin dosing on Day 3) corresponds to the Compound A treatment period, Day 3 to Day 12 (following phenytoin dosing on Day 3 and prior to Compound A dosing on Day 12) corresponds to the phenytoin treatment period, and Day 12 to the follow-up visit (following Compound A dosing on Day 12) corresponds to the Compound A in combination with phenytoin treatment period.

CYP3A4, CYP2D6, CYP2C9 = details: has been reported; cited from earlier work
[4] = Compound A 100 mg + phenytoin 100 mg TID
[5] = with phenytoin 100 mg TID for 10 days (Day 12) vs Compound A alone
[6] = with vs without phenytoin comparison
[7] = whole study (Compound A, phenytoin, combination)

Cc1cc(S(=O)(=O)Nc2cscn2)c(F)cc1N(C)[C@H]1CCN(Cc2ccccc2)C1 [Compound A, (S)-4-((1-benzylpyrrolidin-3-yl)(methyl)amino)-2-fluoro-5-methyl-N-(thiazol-4-yl)benzenesulfonamide]
mean amount excreted unchanged in urine [1, 4]: 57186 ng | mean percentage of dose excreted unchanged in urine [1, 4]: 0.06% | mean amount excreted unchanged in urine ([1]; Compound A 100 mg alone): 71103 ng | mean percentage of dose excreted unchanged in urine ([1]; Compound A 100 mg alone): 0.07% | CL renal ([1]; human, urine, oral, both treatments: presence (Day 12) or absence (Day 1) of phenytoin): 0.05 to 0.0667 mL/min | CLr GMR ([1]; with/without phenytoin): 100.25% | effect of phenytoin 100 mg TID on Compound A total systemic exposure ([2]; 90% CI of GMR for AUC0-t and AUC0-inf within no effect boundaries 80.00-125.00%): did not affect | apparent clearance ([2]; Compound A alone): 5.4 L/h | apparent volume of distribution ([2]; Compound A alone): 89 L | apparent clearance ([2]; Compound A with phenytoin): 5.7 L/h | apparent volume of distribution ([2]; Compound A with phenytoin): 65 L | increase of peak plasma concentration (Cmax) ([2]; co-administered with phenytoin 100 mg TID x 10 days vs Compound A alone): approximately 22% | Cmax ([2]; oral, Compound A 100 mg alone, full sampling, read-out: mean Cmax): 3300 ng/mL | AUC ([2]; oral, Compound A 100 mg alone, truncated sampling): 19900 ng·h/mL | Cmax ([2]; oral, Compound A 100 mg alone, truncated sampling, read-out: Cmax): 3220 ng/mL | Tmax ([2]; oral, Compound A 100 mg alone, truncated sampling, read-out: Tmax): 1 h | Cmax ([2]; oral, Compound A 100 mg with phenytoin 100 mg TID x 10 days, full sampling, read-out: mean Cmax): 3720 ng/mL | AUC ([2]; oral, Compound A with phenytoin 100 mg TID x 10 days, truncated sampling): 18600 ng·h/mL | Cmax ([2]; oral, Compound A with phenytoin 100 mg TID x 10 days, truncated sampling, read-out: Cmax): 3680 ng/mL | Tmax ([2]; oral, Compound A with phenytoin 100 mg TID x 10 days, truncated sampling, read-out: Tmax): 1 h | AUC(0-t) ([2]; oral, Compound A 100 mg + phenytoin 100 mg TID x 10 days, full sampling): 17800 ng·h/mL | AUC(0-inf) ([2]; oral, Compound A 100 mg + phenytoin 100 mg TID x 10 days): 18000 ng·h/mL | AUC(0-t) ([2]; oral, Compound A 100 mg alone, full sampling): 19100 ng·h/mL | AUC(0-inf) ([2]; oral, Compound A 100 mg alone): 19800 ng·h/mL | Tmax ([2]; po, Compound A 100 mg single oral dose alone (Day 1), fasted, full sampling, read-out: time to peak plasma concentrations (Tmax)): ~1 h | Tmax ([2]; po, Compound A 100 mg single oral dose with phenytoin 100 mg TID for 10 days (Day 12), full sampling, read-out: time to peak plasma concentrations (Tmax)): ~1 h | half-life ([2]; po, Compound A alone): 10 h | half-life ([2]; po, Compound A with phenytoin): 8 h | difference in AUC0-inf [2, 5]: ~7% | difference in AUC0-t [2, 5]: approximately 4% | intra-subject CV % of AUC0-inf [2, 6]: 22% | intra-subject CV % of AUC0-t [2, 6]: 26% | intra-subject CV % of Cmax [2, 6]: 53% | AUC0-inf GMR ([2]; with/without phenytoin, 90% CI 81.75-105.23%): 92.75% | AUC0-t GMR ([2]; with/without phenytoin, 90% CI 82.54-111.67%): 96.01% | Cmax geometric mean ratio (GMR) ([2]; with/without phenytoin, 90% CI 90.94-162.38%): 121.52% | incidence of subjects with TEAEs ([3]; Compound A alone on Day 1): 39% | incidence of subjects with TEAEs ([3]; Compound A in combination with phenytoin on Day 12): 65% | deaths or SAEs [3, 7]: No deaths or SAEs occurred | subjects reporting a severe TEAE [3, 7]: None | metabolizing CYP enzymes (CYP3A4, CYP2D6, CYP2C9): metabolized by CYP3A4, CYP2D6, and to a lesser extent CYP2C9

O=C1NC(=O)C(c2ccccc2)(c2ccccc2)N1 [phenytoin, reference compound]
incidence of subjects with TEAEs ([3]; phenytoin alone from Day 3 to Day 12): 71%

From US20230405023A1, “USE OF THE NAV1.6 SODIUM CHANNEL BLOCKER (S)-4-((1-BENZYLPYRROLIDIN-3-YL)(METHYL)AMINO)-2-FLUORO-5-METHYL-N(THIAZOL-4-YL)BENZENESULFONAMIDE, TOGETHER WITH STRONG INDUCERS OF CYTOCHROME P450 3A4, IN THE TREATMENT OF CONDITIONS ASSOCIATED WITH NAVI.6 ACTIVITY” (Xenon Pharmaceuticals Inc., priority 2020, published 2023)
